# Source: ChEMBL document CHEMBL1146613, “Novel inhibitors of procollagen C-terminal proteinase. Part 1: diamino Acid hydroxamates” (Bioorg Med Chem Lett, 2003)
# pKi: −log10 of the molar value.
# Target: T1, Bone morphogenetic protein 1 (Homo sapiens, UniProt P13497)
# T1 sequence (P13497 whole entry): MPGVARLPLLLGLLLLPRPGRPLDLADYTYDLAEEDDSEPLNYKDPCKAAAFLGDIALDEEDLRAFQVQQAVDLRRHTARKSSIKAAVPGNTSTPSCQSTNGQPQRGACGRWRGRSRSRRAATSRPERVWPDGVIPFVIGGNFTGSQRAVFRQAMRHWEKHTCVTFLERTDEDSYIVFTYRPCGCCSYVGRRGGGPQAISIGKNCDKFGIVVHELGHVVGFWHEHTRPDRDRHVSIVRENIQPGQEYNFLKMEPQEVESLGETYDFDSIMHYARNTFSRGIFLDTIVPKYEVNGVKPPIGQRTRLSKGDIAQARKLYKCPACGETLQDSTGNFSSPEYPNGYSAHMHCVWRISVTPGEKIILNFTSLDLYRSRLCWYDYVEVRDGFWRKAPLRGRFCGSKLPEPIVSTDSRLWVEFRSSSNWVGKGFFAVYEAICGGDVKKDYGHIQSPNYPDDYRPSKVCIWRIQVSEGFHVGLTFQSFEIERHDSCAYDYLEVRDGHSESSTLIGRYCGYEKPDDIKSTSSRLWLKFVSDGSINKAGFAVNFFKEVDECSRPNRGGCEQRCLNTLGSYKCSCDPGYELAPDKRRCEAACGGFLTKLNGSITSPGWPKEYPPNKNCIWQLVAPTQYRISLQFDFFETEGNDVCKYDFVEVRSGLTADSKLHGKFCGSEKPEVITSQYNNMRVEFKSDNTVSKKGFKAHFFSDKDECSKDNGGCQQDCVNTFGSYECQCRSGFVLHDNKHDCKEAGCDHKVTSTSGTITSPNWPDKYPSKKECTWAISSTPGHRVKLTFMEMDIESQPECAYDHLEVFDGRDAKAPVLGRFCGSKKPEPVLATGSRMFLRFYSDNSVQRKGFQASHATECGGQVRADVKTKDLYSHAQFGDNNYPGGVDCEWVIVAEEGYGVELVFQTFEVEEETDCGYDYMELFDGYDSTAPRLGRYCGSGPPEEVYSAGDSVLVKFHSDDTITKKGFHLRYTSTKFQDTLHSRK
# Test: In vitro inhibitory activity against procollagen C-terminal proteinase (PCP) in HT1080 cells using synthetic peptide as substrate
# Format: cell-based, HT-1080
row,Compound,pKi
1,COc1ccc(S(=O)(=O)N(Cc2ccc3c(c2)OCO3)[C@H](CNC(=O)c2cnoc2C)C(=O)NO)cc1,5.71
2,COc1ccc(S(=O)(=O)N(Cc2ccc3c(c2)OCO3)[C@H](CCNC(=O)c2ccccc2)C(=O)NO)cc1,6.33
3,COc1ccc(S(=O)(=O)N(Cc2ccc3c(c2)OCO3)[C@H](CCNC(=O)c2cnoc2C)C(=O)NO)cc1,7.07
4,COc1ccc(S(=O)(=O)N(Cc2ccc3c(c2)OCO3)[C@H](CNC(=O)c2ccccc2-n2cccc2)C(=O)NO)cc1,8.10
5,COC(=O)c1ccc(C(=O)NCC[C@H](C(=O)NO)N(Cc2ccc3c(c2)OCO3)S(=O)(=O)c2ccc(OC)cc2)cc1,6.08
6,COc1ccc(S(=O)(=O)N(Cc2ccc3c(c2)OCO3)[C@H](CNC(=O)CNc2cnccn2)C(=O)NO)cc1,6.60
7,COc1ccc(S(=O)(=O)N(Cc2ccc3c(c2)OCO3)[C@H](CNC(=O)NS(=O)(=O)c2ccc(Cl)cc2)C(=O)NO)cc1,7.74
8,COC(=O)c1ccc(C(=O)NC[C@H](C(=O)NO)N(Cc2ccc3c(c2)OCO3)S(=O)(=O)c2ccc(OC)cc2)cc1,8.15
9,COc1ccc(S(=O)(=O)N(Cc2ccc3c(c2)OCO3)[C@H](CCCNC(=O)c2ccccc2)C(=O)NO)cc1,7.00
10,COc1ccc(S(=O)(=O)N(Cc2ccc3c(c2)OCO3)[C@H](CNCc2ccc(NC(C)=O)cc2)C(=O)NO)cc1,6.00
11,COc1ccc(S(=O)(=O)N(Cc2ccc3c(c2)OCO3)[C@H](CCNC(=O)CCc2nc3ccccc3[nH]2)C(=O)NO)cc1,6.39
12,COc1ccc(S(=O)(=O)N(Cc2ccc3c(c2)OCO3)[C@H](CCNC(=O)CNc2cnccn2)C(=O)NO)cc1,5.60
13,COc1ccc(S(=O)(=O)N(Cc2ccc3c(c2)OCO3)[C@H](CCNC(=O)c2ccccc2-n2cccc2)C(=O)NO)cc1,6.28
14,COc1ccc(S(=O)(=O)N(Cc2ccc3c(c2)OCO3)[C@H](CNC(=O)c2ccccc2)C(=O)NO)cc1,7.85
15,COc1ccc(S(=O)(=O)N(Cc2ccc3c(c2)OCO3)[C@H](CCCCNC(=O)c2ccccc2)C(=O)NO)cc1,6.46
16,CCOc1ccc(NC(=O)NC[C@H](C(=O)NO)N(Cc2ccc3c(c2)OCO3)S(=O)(=O)c2ccc(OC)cc2)cc1,7.66
17,CCOC(=O)C1CCC(NCC(=O)NCC[C@H](C(=O)NO)N(Cc2ccc3c(c2)OCO3)S(=O)(=O)c2ccc(OC)cc2)CC1 (some centres undefined),6.33
18,COc1ccc(S(=O)(=O)N(Cc2ccc3c(c2)OCO3)[C@H](CNS(=O)(=O)Cc2cccc([N+](=O)[O-])c2)C(=O)NO)cc1,7.55
19,COc1ccc(S(=O)(=O)N(Cc2ccc3c(c2)OCO3)[C@H](CCNC(=O)c2c(-c3ccccc3)noc2C)C(=O)NO)cc1,6.02
